Values after ≈ are worked out from the molar mass of the structure shown. Active and inactive are the calls of the source. The rule behind the calls is not given here.
Assays:
Candida tropicalis [1] = test: Antifungal activity against Candida tropicalis 156 after 24 hrs by microdilution broth method; assay type: functional; conditions: Candida tropicalis, 156, 24 h
Candida tropicalis [2] = test: Antifungal activity against Candida tropicalis 156 after 48 hrs by microdilution broth method; assay type: functional; conditions: Candida tropicalis, 156, 48 h
Pichia kudriavzevii [3] = test: Antifungal activity against Candida krusei E28 after 24 hrs by microdilution broth method; assay type: functional; conditions: E28, 24 h
Pichia kudriavzevii [4] = test: Antifungal activity against Candida krusei E28 after 48 hrs by microdilution broth method; assay type: functional; conditions: E28, 48 h
Nakaseomyces glabratus [5] = test: Antifungal activity against Candida glabrata 20/I after 24 hrs by microdilution broth method; assay type: functional
Nakaseomyces glabratus [6] = test: Antifungal activity against Candida glabrata 20/I after 48 hrs by microdilution broth method; assay type: functional
[7] = tested on: Trichophyton mentagrophytes; test: Antifungal activity against Trichophyton mentagrophytes 445 after 72 hrs by microdilution broth method; assay type: functional; conditions: Trichophyton mentagrophytes, 445, 72 h
[8] = tested on: Trichophyton mentagrophytes; test: Antifungal activity against Trichophyton mentagrophytes 445 after 120 hrs by microdilution broth method; assay type: functional; conditions: Trichophyton mentagrophytes, 445, 120 h
[9] = tested on: Mycobacterium tuberculosis; test: Antimycobacterial activity against Mycobacterium tuberculosis H37Rv 331/88 after 14 days by micromethod; assay type: functional; conditions: H37Rv 331/88, 336 h
[10] = tested on: Mycobacterium tuberculosis; test: Antimycobacterial activity against Mycobacterium tuberculosis H37Rv 331/88 after 21 days by micromethod; assay type: functional; conditions: H37Rv 331/88, 504 h
Mycobacterium avium [11] = test: Antimycobacterial activity against Mycobacterium avium 330/88 after 14 days by micromethod; assay type: functional; conditions: 330/88, 336 h
Mycobacterium avium [12] = test: Antimycobacterial activity against Mycobacterium avium 330/88 after 21 days by micromethod; assay type: functional; conditions: 330/88, 504 h
Mycobacterium kansasii [13] = test: Antimycobacterial activity against Mycobacterium kansasii 6509/80 after 7 days by micromethod; assay type: functional; conditions: 6509/80, 168 h
Mycobacterium kansasii [14] = test: Antimycobacterial activity against Mycobacterium kansasii 6509/80 after 14 days by micromethod; assay type: functional; conditions: 6509/80, 336 h
Mycobacterium kansasii [15] = test: Antimycobacterial activity against Mycobacterium kansasii 6509/80 after 21 days by micromethod; assay type: functional; conditions: 6509/80, 504 h
Mycobacterium kansasii [16] = test: Antimycobacterial activity against Mycobacterium kansasii 6509/96 after 7 days by micromethod; assay type: functional; conditions: 6509/96, 168 h
Mycobacterium kansasii [17] = test: Antimycobacterial activity against Mycobacterium kansasii 6509/96 after 14 days by micromethod; assay type: functional; conditions: 6509/96, 336 h
Mycobacterium kansasii [18] = test: Antimycobacterial activity against Mycobacterium kansasii 6509/96 after 21 days by micromethod; assay type: functional; conditions: 6509/96, 504 h
Klebsiella pneumoniae [19] = test: Antibacterial activity against gram-negative Klebsiella pneumoniae D 11750/08 after 24 to 48 hrs by microdilution broth method; assay type: functional, organism-based
Pseudomonas aeruginosa = test: Antibacterial activity against gram-negative Pseudomonas aeruginosa CCM 1961 after 48 hrs by microdilution broth method; assay type: functional, organism-based
Klebsiella pneumoniae [20] = test: Antibacterial activity against extended spectrum beta-lactamase-positive Klebsiella pneumoniae J 14368/08 after 24 to 48 hrs by microdilution broth method; assay type: functional, organism-based
Candida albicans = test: Antifungal activity against Candida albicans ATCC 44859 after 24 to 48 hrs by microdilution broth method; assay type: functional, organism-based
Trichosporon asahii = test: Antifungal activity against Trichosporon asahii 1188 after 24 to 48 hrs by microdilution broth method; assay type: functional, organism-based
Aspergillus fumigatus = test: Antifungal activity against Aspergillus fumigatus 231 after 24 to 48 hrs by microdilution broth method; assay type: functional, organism-based
Lichtheimia corymbifera = test: Antifungal activity against Absidia corymbifera 272 after 24 to 48 hrs by microdilution broth method; assay type: functional, organism-based
Staphylococcus aureus [21] = test: Antibacterial activity against gram-positive Staphylococcus aureus CCM 4516/08 after 24 hrs by microdilution broth method; assay type: functional; conditions: CCM 4516/08, 24 h
Staphylococcus aureus [22] = test: Antibacterial activity against gram-positive Staphylococcus aureus CCM 4516/08 after 48 hrs by microdilution broth method; assay type: functional; conditions: CCM 4516/08, 48 h
Staphylococcus aureus [23] = test: Antibacterial activity against gram-positive methicillin-resistant Staphylococcus aureus H 5996/08 after 24 hrs by microdilution broth method; assay type: functional; conditions: H 5996/08, 24 h
Staphylococcus aureus [24] = test: Antibacterial activity against gram-positive methicillin-resistant Staphylococcus aureus H 5996/08 after 48 hrs by microdilution broth method; assay type: functional; conditions: H 5996/08, 48 h
[25] = tested on: Staphylococcus epidermidis; test: Antibacterial activity against gram-positive Staphylococcus epidermidis H 6966/08 after 24 hrs by microdilution broth method; assay type: functional; conditions: H 6966/08, 24 h
[26] = tested on: Staphylococcus epidermidis; test: Antibacterial activity against gram-positive Staphylococcus epidermidis H 6966/08 after 48 hrs by microdilution broth method; assay type: functional; conditions: H 6966/08, 48 h
Enterococcus faecalis [27] = test: Antibacterial activity against gram-positive Enterococcus faecalis J 14365/08 after 24 hrs by microdilution broth method; assay type: functional; conditions: J 14365/08, 24 h
Enterococcus faecalis [28] = test: Antibacterial activity against gram-positive Enterococcus faecalis J 14365/08 after 48 hrs by microdilution broth method; assay type: functional; conditions: J 14365/08, 48 h
Escherichia coli [29] = test: Antibacterial activity against gram-negative Escherichia coli CCM 4517 after 24 hrs by microdilution broth method; assay type: functional; conditions: CCM 4517, 24 h
Escherichia coli [30] = test: Antibacterial activity against gram-negative Escherichia coli CCM 4517 after 48 hrs by microdilution broth method; assay type: functional; conditions: CCM 4517, 48 h

Row | Compound | MIC (Candida tropicalis [1]) [µM] | MIC (Candida tropicalis [2]) [µM] | MIC (Pichia kudriavzevii [3]) [µM] | MIC [9] [µM] | MIC [10] [µM] | MIC (Mycobacterium avium [11]) [µM] | MIC (Mycobacterium avium [12]) [µM] | MIC (Mycobacterium kansasii [13]) [µM] | MIC (Mycobacterium kansasii [14]) [µM] | MIC (Mycobacterium kansasii [15]) [µM] | MIC (Mycobacterium kansasii [16]) [µM] | MIC (Mycobacterium kansasii [17]) [µM] | MIC (Mycobacterium kansasii [18]) [µM] | Activity (Klebsiella pneumoniae [19]) | Activity (Pseudomonas aeruginosa) | Activity (Klebsiella pneumoniae [20]) | Activity (Candida albicans) | Activity (Trichosporon asahii) | Activity (Aspergillus fumigatus) | Activity (Lichtheimia corymbifera) | further results
1 | OC(Cn1cncn1)(Cn1cncn1)c1ccc(F)cc1F [FLUCONAZOLE] | > 500 | > 500 | 125 (≈ 38.3 µg/mL) |  |  |  |  |  |  |  |  |  |  |  |  |  |  |  |  |  | MIC (Pichia kudriavzevii [4]): 250 µM (≈ 76.6 µg/mL); MIC (Nakaseomyces glabratus [5]): 31.2 µM (≈ 9.57 µg/mL); MIC (Nakaseomyces glabratus [6]): 500 µM (≈ 153 µg/mL); MIC [7]: 7.81 µM (≈ 2.39 µg/mL); MIC [8]: 125 µM (≈ 38.3 µg/mL)
2 | O=C(N/N=C/c1ccc([N+](=O)[O-])cc1)c1ccc(C(F)(F)F)cc1 |  |  |  | 125 (≈ 42.2 µg/mL) | > 250 | > 250 | > 250 | 32 (≈ 10.8 µg/mL) | 62.5 (≈ 21.1 µg/mL) | 62.5 (≈ 21.1 µg/mL) | 250 (≈ 84.3 µg/mL) | > 250 | > 250 | inactive | inactive | inactive | inactive | inactive | inactive | inactive | 
3 | NNC(=O)c1ccc(C(F)(F)F)cc1 | > 500 | > 500 | > 500 | 250 (≈ 51 µg/mL) | 500 (≈ 102 µg/mL) | > 500 | > 500 | > 250 | > 250 | > 250 | > 250 | > 250 | > 250 |  |  |  |  |  |  |  | MIC (Staphylococcus aureus [21]): > 500 µM; MIC (Staphylococcus aureus [22]): > 500 µM; MIC (Staphylococcus aureus [23]): > 500 µM; MIC (Staphylococcus aureus [24]): > 500 µM; MIC [25]: > 500 µM; MIC [26]: > 500 µM; MIC (Enterococcus faecalis [27]): > 500 µM; MIC (Enterococcus faecalis [28]): > 500 µM; MIC (Escherichia coli [29]): > 500 µM; MIC (Escherichia coli [30]): > 500 µM; MIC (Pichia kudriavzevii [4]): > 500 µM; MIC (Nakaseomyces glabratus [5]): > 500 µM; MIC (Nakaseomyces glabratus [6]): > 500 µM; MIC [7]: > 500 µM; MIC [8]: > 500 µM
4 | O=C(N/N=C/c1cccc(O)c1)c1ccc(C(F)(F)F)cc1 |  |  |  | 250 (≈ 77.1 µg/mL) | 250 (≈ 77.1 µg/mL) | 250 (≈ 77.1 µg/mL) | 250 (≈ 77.1 µg/mL) | 62.5 (≈ 19.3 µg/mL) | 125 (≈ 38.5 µg/mL) | 250 (≈ 77.1 µg/mL) | 250 (≈ 77.1 µg/mL) | 500 (≈ 154 µg/mL) | 500 (≈ 154 µg/mL) | inactive | inactive | inactive | inactive | inactive | inactive | inactive | 
5 | O=C(NN=C1CCCC1)c1ccc(C(F)(F)F)cc1 |  |  |  | 500 (≈ 135 µg/mL) | 500 (≈ 135 µg/mL) | > 125 | > 125 | 500 (≈ 135 µg/mL) | > 1000 | > 1000 | 500 (≈ 135 µg/mL) | 1000 (≈ 270 µg/mL) | 1000 (≈ 270 µg/mL) |  |  |  |  |  |  |  | 
6 | CC(C)=NNC(=O)c1ccc(C(F)(F)F)cc1 | > 500 | > 500 | > 500 | > 125 | > 125 | > 125 | > 125 | 125 (≈ 30.5 µg/mL) | > 125 | > 125 | > 125 | > 125 | > 125 | inactive | inactive | inactive | inactive | inactive | inactive | inactive | MIC (Staphylococcus aureus [21]): > 500 µM; MIC (Staphylococcus aureus [22]): > 500 µM; MIC (Staphylococcus aureus [23]): > 500 µM; MIC (Staphylococcus aureus [24]): > 500 µM; MIC [25]: 500 µM (≈ 122 µg/mL); MIC [26]: > 500 µM; MIC (Enterococcus faecalis [27]): 250 µM (≈ 61.1 µg/mL); MIC (Enterococcus faecalis [28]): 500 µM (≈ 122 µg/mL); MIC (Escherichia coli [29]): > 500 µM; MIC (Escherichia coli [30]): > 500 µM; MIC (Pichia kudriavzevii [4]): > 500 µM; MIC (Nakaseomyces glabratus [5]): > 500 µM; MIC (Nakaseomyces glabratus [6]): > 500 µM; MIC [7]: > 500 µM; MIC [8]: > 500 µM
7 | NNC(=O)c1ccncc1 [ISONIAZID] |  |  |  | 0.5 (≈ 0.0686 µg/mL) | 1 (≈ 0.137 µg/mL) | > 250 | > 250 | > 250 | > 250 | > 250 | 8 (≈ 1.1 µg/mL) | 8 (≈ 1.1 µg/mL) | 8 (≈ 1.1 µg/mL) |  |  |  |  |  |  |  | 
8 | O=C(N/N=C/c1cccc(Cl)c1)c1ccc(C(F)(F)F)cc1 |  |  |  | > 125 | > 125 | > 125 | > 125 | 125 (≈ 40.8 µg/mL) | > 125 | > 125 | > 125 | > 125 | > 125 | inactive | inactive | inactive | inactive | inactive | inactive | inactive | 
9 | O=C(NN=C1CCCCC1)c1ccc(C(F)(F)F)cc1 |  |  |  | 250 (≈ 71.1 µg/mL) | 500 (≈ 142 µg/mL) | > 125 | > 125 | 500 (≈ 142 µg/mL) | > 1000 | > 1000 | 500 (≈ 142 µg/mL) | 1000 (≈ 284 µg/mL) | 1000 (≈ 284 µg/mL) |  |  |  |  |  |  |  | 

From ChEMBL document CHEMBL4177650, “Synthesis and biological evolution of hydrazones derived from 4-(trifluoromethyl)benzohydrazide” (Bioorg Med Chem Lett, 2017)
